From patent US20090082435A1, “Methods, Compositions, And Compounds For Modulation Of Monoacylglycerol Lipase, Pain, And Stress-Related Disorders” (The Regents of the University of California, priority 2005, published 2009)

What was measured:
[1] = tested on: tail-flick latencies in rats; experiment: tail-flick test without stressor: basal thresholds, agonist antinociception; type: in vivo, rat; details: for basal nociceptive threshold (tail-flick latencies) in absence of stressor: same doses and routes as in stress analgesia tests; for drug's own antinociceptive effects after repeated daily injections: prior to foot shock, WIN55,212-2 14 days, morphine 7 days
[2] = tested on: organotypic slice cultures of rat forebrain; experiment: endocannabinoid content by LC/MS in organotypic brain slice cultures; type: cell-based; details: URB602 100 μM; for anandamide levels: URB597 1 μM
Protocol: Brain slice cultures. Brain slices were cultured from Wistar rats. Pups were sacrificed on post-natal day 5 by decapitation following cryo-anaesthesia. Brains were removed and cut (0.4 mm-thick coronal slices) using a vibratome in a bath of ice-cold high-glucose Dulbecco's Modified Eagle's Medium (Gibco). Hemispheres were placed on Millicell culture inserts (Millipore) in 6-well plates with serum-based culture medium (1.5 ml) composed of basal Eagle medium with Earle's salts (100 ml), Earle's balanced salt solution (50 ml), heat-inactivated horse serum (50 ml), L-glutamine (0.2 mM, 1 ml) and 50% glucose (2 ml) (Gibco). Slices were maintained at 37° C. with 5% CO2 for 7 days before use.
(§1) Lipid extractions and LC/MS analyses. Ex vivo experiments. Rats were habituated to the guillotine for at least 7 days prior to the experiment and sacrificed them either before or various times (2, 7, 15 and 25 min) after a 3-min foot shock (n=10 per group). The brains were rapidly removed, dissected and stored frozen (−80° C.) until lipid extraction. In vitro experiments. […] In some experiments, slices were incubated with ionomycin (2 μM) in DMEM for additional 15 min. Reactions were stopped and washed with ice-cold 50% methanol (1 ml). Slices were collected in the same medium (0.2 ml) and homogenized. Brain tissue (≈50 mg) and slice homogenates were suspended in methanol (2 ml) containing [^2H]-containing internal standards (25 pmol). Lipids were extracted in methanol-chloroform-H2O (1:2:0.25). The organic phase was recovered, evaporated to dryness, reconstituted in chloroform/methanol (1:3, 80 μL) and subjected to LC/MS analysis as described (Giuffrida, A. et al., Anal. Biochem. 280:87-93 (2000)).

[3] = target: T1, native rat brain MGL (Rattus norvegicus, UniProt Q8R431); experiment: MGL activity assay, rat brain cytosol, 2-monooleoylglycerol substrate; type: biochemical; details: for effect on rat brain MGL activity in vitro: FIG. 3b
T1 construct: from tissue; host or cells: Wistar rat brain, cytosol fraction
T1 sequence (Q8R431 1-303): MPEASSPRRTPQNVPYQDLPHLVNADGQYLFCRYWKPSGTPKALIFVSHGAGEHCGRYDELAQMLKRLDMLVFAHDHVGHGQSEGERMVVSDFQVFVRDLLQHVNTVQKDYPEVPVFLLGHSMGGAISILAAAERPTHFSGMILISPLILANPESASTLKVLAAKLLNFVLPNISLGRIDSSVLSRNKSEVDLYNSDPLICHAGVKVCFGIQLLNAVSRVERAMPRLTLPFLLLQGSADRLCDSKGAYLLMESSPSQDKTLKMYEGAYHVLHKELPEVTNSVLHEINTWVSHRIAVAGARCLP

[4] = tested on: stress-induced analgesia in rats; experiment: non-opioid stress-induced analgesia: foot shock, then tail-flick test; type: in vivo, rat
[5] = target: phospholipase C (PLC) (Bacillus cereus, UniProt P09598); experiment: phospholipase C activity assay; type: biochemical, B. cereus
Sequence of phospholipase C (PLC) (P09598 39-283 limits assumed): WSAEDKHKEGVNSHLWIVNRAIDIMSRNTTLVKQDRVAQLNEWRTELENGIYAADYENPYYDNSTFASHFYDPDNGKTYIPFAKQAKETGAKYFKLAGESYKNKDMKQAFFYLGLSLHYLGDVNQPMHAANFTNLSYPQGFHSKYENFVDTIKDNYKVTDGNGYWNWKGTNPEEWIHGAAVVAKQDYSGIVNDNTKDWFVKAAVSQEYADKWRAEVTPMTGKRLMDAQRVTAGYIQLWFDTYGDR

[6] = tested on: diacylglycerol lipase (DGL); experiment: DGL activity assay, rat brain protein, [3H]dioleoylglycerol; type: biochemical
[7] = target: T2, cyclooxygenase (Cox)-2 (Homo sapiens, UniProt P35354); experiment: cyclooxygenase assay, commercial kit with purified enzymes; type: biochemical
T2 construct: purchased Cayman Chemicals, Ann Arbor, Mich
T2 sequence (P35354 18-604): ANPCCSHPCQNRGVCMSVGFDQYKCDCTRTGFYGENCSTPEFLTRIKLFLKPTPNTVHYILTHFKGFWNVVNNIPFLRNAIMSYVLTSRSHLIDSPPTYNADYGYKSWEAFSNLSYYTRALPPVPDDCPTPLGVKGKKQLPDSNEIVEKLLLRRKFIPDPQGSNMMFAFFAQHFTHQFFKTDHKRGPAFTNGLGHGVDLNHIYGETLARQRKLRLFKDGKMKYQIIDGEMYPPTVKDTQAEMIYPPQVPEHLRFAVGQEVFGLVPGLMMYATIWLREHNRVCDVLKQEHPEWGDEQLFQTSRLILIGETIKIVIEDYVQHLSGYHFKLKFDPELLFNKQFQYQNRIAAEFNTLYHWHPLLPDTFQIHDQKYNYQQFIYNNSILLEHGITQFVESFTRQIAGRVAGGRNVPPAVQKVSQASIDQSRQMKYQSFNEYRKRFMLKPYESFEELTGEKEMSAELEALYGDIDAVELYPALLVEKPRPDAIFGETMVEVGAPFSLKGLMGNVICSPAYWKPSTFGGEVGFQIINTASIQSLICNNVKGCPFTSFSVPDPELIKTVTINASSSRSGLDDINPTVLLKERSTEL

[8] = tested on: PLD; experiment: phospholipase D activity assay; type: biochemical, S. chromofuscus
[9] = target: rat cerebellar membranes; experiment: [35S]-GTP-γ-S binding to rat cerebellar membranes; type: biochemical; details: data not shown; read-out: half-maximal effective concentration (EC50), [35S]-GTP-γ-S binding
[10] = tested on: 2-AG and anandamide levels in rat brain; experiment: ex vivo brain endocannabinoid levels by LC/MS after PAG microinjection and foot shock; type: in vivo
Protocol: as §1

[11] = target: T3, rat brain FAAH (Rattus norvegicus, UniProt P97612); experiment: FAAH activity assay, rat brain membranes, anandamide substrate; type: biochemical; details: FIG. 3c
T3 construct: from tissue; host or cells: Wistar rat brain, membrane fraction
T3 sequence (P97612 1-579): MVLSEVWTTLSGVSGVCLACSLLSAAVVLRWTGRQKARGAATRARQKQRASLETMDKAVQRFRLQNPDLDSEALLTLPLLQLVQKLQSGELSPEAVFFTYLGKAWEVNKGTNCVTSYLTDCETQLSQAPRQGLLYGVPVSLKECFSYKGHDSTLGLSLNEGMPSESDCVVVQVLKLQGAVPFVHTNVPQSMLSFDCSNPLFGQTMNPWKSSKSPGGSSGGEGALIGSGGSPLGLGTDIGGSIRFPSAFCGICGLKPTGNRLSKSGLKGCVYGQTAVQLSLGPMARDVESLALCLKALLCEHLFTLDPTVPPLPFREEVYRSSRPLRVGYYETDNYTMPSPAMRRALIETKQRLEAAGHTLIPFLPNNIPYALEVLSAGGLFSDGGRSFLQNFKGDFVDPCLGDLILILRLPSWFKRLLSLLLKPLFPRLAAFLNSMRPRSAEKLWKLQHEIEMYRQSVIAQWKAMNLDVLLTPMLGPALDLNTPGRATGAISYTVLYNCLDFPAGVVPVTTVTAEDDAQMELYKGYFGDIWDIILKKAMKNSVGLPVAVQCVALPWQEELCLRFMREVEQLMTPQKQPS

[12] = URB602 0.1 nmol in PAG, 25 min after shock

For `NC(=O)c1cccc(-c2cccc(OC(=O)NC3CCCCC3)c2)c1` [URB597], the “basal nociceptive threshold (tail-flick latencies) in absence of stressor” value (“basal nociceptive threshold” for short) [1] was “did not modify”, the anandamide levels [2] was “markedly elevated” and the “effect on rat brain MGL activity in vitro” value [3] was “no effect”. The “effect on stress-induced analgesia, URB597 in dorsolateral PAG” value ([4]; rat, in vivo) was “significant potentiation” and the “effect on stress-induced analgesia, URB597 systemic” value ([4]; rat, in vivo, ip) was “significant potentiation”.
In the case of `Cc1c(C(=O)NN2CCCCC2)nn(-c2ccc(Cl)cc2Cl)c1-c1ccc(Cl)cc1` [rimonabant], the “basal nociceptive threshold” value [1] is reported as “does not alter”, the “effect of low-dose rimonabant alone on stress analgesia” value ([4]; 0.2 nmol in PAG) is reported as “insufficient to reverse” and the “rimonabant effect on MAFP enhancement of stress analgesia” value ([4]; co-injection, rimonabant 0.2 nmol) is reported as “blocked”. The “effect of antagonist on stress-induced analgesia, systemic” value (“effect of antagonist” below) ([4]; i.p., naltrexone 14 mg-kg^−1, rimonabant, AM251, SR144528 5 mg-kg^−1) was “almost abolished”, the “rimonabant effect on URB602 enhancement of stress analgesia” value ([4]; local co-administration in PAG, rimonabant 0.2 nmol) was “prevented” and the “effect on stress-induced analgesia, ventrolateral PAG” value ([4]; rimonabant 2 nmol) was “inactive”. For the same compound, the “effect on stress-induced analgesia, dorsolateral PAG” value ([4]; rimonabant 2 nmol microinjected) was “significantly reduced”, the “rimonabant effect on URB597 potentiation of stress analgesia” value ([4]; rimonabant 1 mg-kg^−1 i.p., 0.2 nmol in the PAG) was “prevented” and the “rimonabant effect on VDM11 enhancement of stress analgesia” value ([4]; rimonabant 2 mg-kg^−1 i.p.) was “blocked”. The “effect on stress-induced analgesia, lateral ventricle” value ([4]; rimonabant 2-10 nmol) was “ineffective”.
`O=C1CC[C@@]2(O)[C@H]3Cc4ccc(O)c5c4[C@@]2(CCN3CC2CC2)[C@H]1O5` [naltrexone] was tested, and the “effect of antagonist” value ([4]; rat, in vivo, ip) was “insensitive”.
In the case of `Cc1c(C(=O)NN2CCCCC2)nn(-c2ccc(Cl)cc2Cl)c1-c1ccc(I)cc1` [AM251], the “effect of antagonist” value ([4]; rat, in vivo, ip) is reported as “almost abolished”.
`CN1CC[C@]23c4c5ccc(O)c4O[C@H]2[C@@H](O)C=C[C@H]3[C@H]1C5` [morphine] was tested, and the “mean tail-flick latency after morphine, cannabinoid tolerant rats” value ([1]; morphine 2.5 mg-kg^−1 s.c., rats tolerant to WIN55,212-2, n=6-7) was 6.09 ± 1.93 s, the “mean tail-flick latency after morphine, control rats” value ([1]; morphine 2.5 mg-kg^−1 s.c., vehicle-treated controls, n=6-7) was 5.33 ± 0.21 s and the “drug's own antinociceptive effects after repeated daily injections” value [1] was “decrease”. The “stress-induced analgesia in rats made tolerant to the agonist” value ([4]; rat, in vivo) was “normal degree”.
For `Cc1c(C(=O)c2cccc3ccccc23)c2cccc3c2n1[C@H](CN1CCOCC1)CO3` [WIN55, 212-2], the “drug's own antinociceptive effects after repeated daily injections” value [1] was “decrease” and the “stress-induced analgesia in rats made tolerant to the agonist” value ([4]; rat, in vivo) was “marked reduction”.
`O=C(Nc1cccc(-c2ccccc2)c1)OC1CCCCC1` [URB602, biphenyl-3-yl carbamic acid cyclohexyl ester] was tested, and the “effect on PLC activity” value [5] was “did not affect”, the “basal nociceptive threshold” value [1] was “without altering” and the “effect on DGL activity” value [6] was “did not affect”. For the same compound, the “basal 2-AG levels” value [2] was “significantly increased”, the anandamide levels [2] was “did not modify” and the “2-AG accumulation elicited by ionomycin” value ([2]; ionomycin 2 μM) was “enhanced”. The “effect on rat brain MGL activity in vitro” value [3] was “inhibits”, the IC50 ([3]; broken cell preparations, read-out: half-maximal concentration (IC50) for inhibition of MGL) was 28 ± 4 µM and the “mechanism of MGL inhibition” value ([3]; kinetic analyses) was “non-competitive”. For the same compound, the “Vmax of MGL with URB602” value ([3]; n=4, without URB602 1814±51) was 541±20 nmol-min-mg^−1 protein, the “effect on Cox-2 activity” value [7] was “did not affect” and the “effect on PLD activity” value [8] was “did not affect”. The “effect on stress-induced analgesia, URB602 in dorsolateral PAG” value ([4]; 0.1 nmol microinjection) was “enhanced”, the “effect on stress-induced analgesia, URB602 in ventrolateral PAG” value ([4]; 0.1 nmol microinjection) was “enhanced” and the EC50 [9] was over 100 µM. For the same compound, the “2-AG content in midbrain fragments vs untreated controls” value [10, 12] was “significantly higher”, the “anandamide levels in midbrain vs untreated controls” value [10, 12] was “identical” and the “2-AG and anandamide concentrations in occipital cortex” value ([10]; URB602 injection into the PAG) was “not affected”. For the same compound, the “effect on rat brain FAAH activity” value [11] was “does not affect”.
